According to PubChem BioAssay (NCI):
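Method: 48-hour compound exposure of cells in 96-well plates, five concentrations, linear interpolation of endpoints. GI50: concentration for 50% inhibition of growth. The concentration for full growth arrest is given as TGI.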

Key:
Experiment in all cases: growth of human tumour cells (NCI), 48 h
UO-31 renal = test system: UO-31 renal
OVCAR-3 ovarian = test system: OVCAR-3 ovarian
UACC-62 melanoma = test system: UACC-62 melanoma
MOLT-4 leukemia = test system: MOLT-4 leukemia
MALME-3M melanoma = test system: MALME-3M melanoma
HOP-92 NSCLC = test system: HOP-92 NSCLC
NCI-H522 lung = test system: NCI-H522 lung
OVCAR-5 ovarian = test system: OVCAR-5 ovarian
SK-MEL-5 melanoma = test system: SK-MEL-5 melanoma
A498 renal = test system: A498 renal

SMILES	TGI (UO-31 renal)	TGI (OVCAR-3 ovarian)	TGI (UACC-62 melanoma)	TGI (MOLT-4 leukemia)	TGI (MALME-3M melanoma)	TGI (HOP-92 NSCLC)	TGI (NCI-H522 lung)	TGI (OVCAR-5 ovarian)	TGI (SK-MEL-5 melanoma)	TGI (A498 renal)	GI50 (UO-31 renal)	GI50 (OVCAR-3 ovarian)	GI50 (UACC-62 melanoma)	GI50 (MOLT-4 leukemia)	GI50 (MALME-3M melanoma)	GI50 (HOP-92 NSCLC)	GI50 (NCI-H522 lung)	GI50 (OVCAR-5 ovarian)	GI50 (SK-MEL-5 melanoma)	GI50 (A498 renal)
NC(N)=NS(=O)(=O)c1ccc(NC(=O)c2cccc3c(Nc4ccc(S(N)(=O)=O)cc4)c4ccccc4nc23)cc1	> 100 µM	> 100 µM	> 100 µM	> 100 µM	> 100 µM	> 100 µM	> 100 µM	> 100 µM	> 100 µM	> 100 µM	–	–	–	–	–	–	–	–	–	–
CCCCCCCCCCN=C(c1ccc(N(C)C)cc1)c1ccc(N(C)C)cc1	33 µM	> 24.9 µM	> 38.4 µM	30.8 µM	65.8 µM	26.5 µM	5.94 µM	> 100 µM	18.4 µM	6.33 µM	2.39 µM	0.428 µM	0.508 µM	0.416 µM	16.6 µM	1.92 µM	0.352 µM	7.65 µM	0.67 µM	0.457 µM
Cc1cc(Nc2nc(SCc3ccc(C(=O)Nc4ccc(F)cc4N)cc3)nn3cccc23)n[nH]1	11 µM	49.1 µM	21.6 µM	13.5 µM	25.7 µM	24.3 µM	0.565 µM	> 100 µM	2.43 µM	5.61 µM	1.33 µM	0.202 µM	0.347 µM	0.508 µM	1.83 µM	3.68 µM	0.0488 µM	0.657 µM	0.334 µM	0.623 µM
CC1CCCc2c1nn(C(=O)/C=C(\N)c1ccccc1)c2N (stereo not given)	> 100 µM	32.6 µM	41.5 µM	84.9 µM	> 100 µM	95.7 µM	61.7 µM	> 100 µM	45.7 µM	90.5 µM	3.92 µM	5.61 µM	9.45 µM	5.16 µM	9.4 µM	10.3 µM	13.6 µM	31 µM	4.35 µM	9.64 µM
CCC(=C(c1ccc(OCCCN(C)C)cc1)c1ccc(OCCCN(C)C)cc1)c1ccc(Cl)cc1	0.58 µM	1.08 µM	0.782 µM	0.948 µM	0.973 µM	3.42 µM	1.69 µM	4.8 µM	4.37 µM	4.39 µM	0.269 µM	0.429 µM	0.345 µM	0.379 µM	0.36 µM	0.945 µM	0.48 µM	2.48 µM	2.02 µM	1.7 µM
OC(CN1CC1)C(O)CN1CC1 (stereo not given)	> 50 µg/mL	> 50 µg/mL	> 50 µg/mL	> 50 µg/mL	> 50 µg/mL	> 50 µg/mL	> 50 µg/mL	> 50 µg/mL	> 50 µg/mL	> 50 µg/mL	> 50 µg/mL	> 50 µg/mL	> 50 µg/mL	> 50 µg/mL	> 50 µg/mL	> 50 µg/mL	> 50 µg/mL	> 50 µg/mL	> 50 µg/mL	> 50 µg/mL
CNC(SC)=C1C(=O)OC(C)(C)OC1=O	> 100 µM	> 100 µM	> 100 µM	> 100 µM	> 100 µM	> 100 µM	> 100 µM	> 100 µM	> 100 µM	> 100 µM	–	–	–	–	–	–	–	–	–	–
